From publication PMC3783409, “Enzymatic Synthesis of RNAs Capped with Nucleotide Analogues Reveals the Molecular Basis for Substrate Selectivity of RNA Capping Enzyme: Impacts on RNA Metabolism” (PLoS ONE, 2013) come the findings set out here.

Assay [1] addresses T1, PBCV-1 GTase (Paramecium bursaria Chlorella virus 1, UniProt Q84424). Briefly: Inhibition of the first step of the GTase reaction (E-GMP formation). Type of assay: biochemical. Further details: His-tag; made in house. The settings on record: for Effect on radiolabelled EpG signal: unlabelled nucleotide 2 mM, GTase 10 µM. The procedure: Inhibition of the first step of the GTase reaction was evaluated by carrying out the standard first step GTase reaction in the presence of 0.2 pmol of [α-^32P] GTP and 2 mM of either unlabelled GTP or each unlabelled nucleotide analogue separately. The IC50 of nucleotide analogues was determined by carrying out the standard first step reaction in the presence of 0.2 pmol of [α-^32P] GTP and increasing concentrations of up to 2 mM of each nucleotide analogue. The reactions were stopped by the addition of EDTA to 10 mM and SDS to 1% and analyzed by electrophoresis through a 12.5% polyacrylamide gel containing 0.1% SDS. The radiolabelled proteins were visualized by autoradiography of the gel. Radiolabelled covalent complex formation was quantified by scanning the gel with a PhosphorImager (Amersham Biosciences).

In assay [2] the target is T1, PBCV-1 GTase. The assay can be described thus: Formation of the covalent enzyme-nucleotide intermediate (SDS-PAGE, Coomassie blue). Further details: His-tag; made in house. The class given is biochemical. The note with it: nucleotide analogue 2 mM, magnesium ions 5 mM. As for the experimental part: The standard first step reaction was carried out in the presence of each nucleotide analogue (2 mM) in the presence or absence of potassium pyrophosphate (1 mM). The reactions were resolved on SDS-PAGE followed by Coomassie blue staining.

For assay [3], the target named is T1, PBCV-1 GTase. Briefly: In vitro RNA capping efficiency (nuclease P1 / alkaline phosphatase digestion, TLC). The settings on record: for Relative efficiency of RNA capping, 1st and 2nd steps: nucleotide 2 mM, normalized onto the value obtained with GTP.
For assay [4], the target named is T1, PBCV-1 GTase. Briefly: Transfer of nucleotide analogues onto internally labelled 50 nt RNA (Urea-PAGE). The note with it: 32P-internally labelled RNA.
The next assay has as its target T2, eIF4E protein (Mus musculus, UniProt P63073).
T2 construct: His-tag; made in house; host or cells: bacteria
The assay can be described thus: Binding of free NTP to purified eIF4E (fluorescence saturation isotherm). Further details: species or system murine. The note with it: 2 µM protein, pH 8.0.

Setting [5] is: read-out: IC50 for E-GMP formation, 1st step, 0.2 pmol [α-32P] GTP, PBCV-1 GTase 10 µM, analogue up to 2 mM, pH 7.5, 1hr at 30°C.

Like-named read-outs stand apart in the source and are kept apart here.

T1 sequence (Q84424 whole entry): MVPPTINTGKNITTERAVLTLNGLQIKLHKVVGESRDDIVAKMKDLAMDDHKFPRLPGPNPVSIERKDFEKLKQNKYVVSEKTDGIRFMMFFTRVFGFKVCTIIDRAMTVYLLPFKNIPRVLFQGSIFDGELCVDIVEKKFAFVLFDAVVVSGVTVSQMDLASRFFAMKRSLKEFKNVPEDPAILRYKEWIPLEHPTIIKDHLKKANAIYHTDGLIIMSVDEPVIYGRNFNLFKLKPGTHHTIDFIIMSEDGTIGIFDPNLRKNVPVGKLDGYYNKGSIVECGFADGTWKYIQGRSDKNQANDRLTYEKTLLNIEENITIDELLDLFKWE
T2 sequence (P63073 whole entry): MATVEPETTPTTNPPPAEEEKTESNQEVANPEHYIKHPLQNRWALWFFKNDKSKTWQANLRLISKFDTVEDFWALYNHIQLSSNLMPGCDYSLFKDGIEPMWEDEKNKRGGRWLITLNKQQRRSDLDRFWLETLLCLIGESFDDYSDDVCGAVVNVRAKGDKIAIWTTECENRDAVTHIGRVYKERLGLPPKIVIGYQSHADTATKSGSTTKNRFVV
Description for eIF4E protein: The binding of RNAs harboring modified RNA cap structures to the eIF4E protein was evaluated by fluorescence spectroscopy as described previously [23]. Briefly, excitation was performed at a wavelength of 290 nm fluorescence using a Hitachi F-2500 fluorescence spectrophotometer. Background emission was eliminated by subtracting the signal from the buffer containing the RNA substrate. The extent to which the RNA binds to purified eIF4E protein was determined by monitoring the fluorescence emission of a fixed concentration of proteins with and without the appropriate RNA (2 µM).
(B) Increasing amounts of NTP were added to a 2 µM solution of the purified protein in a binding buffer (50 mM Tris/HCl, pH 8.0, and 50 mM KOAc) and following excitation of tryptophan residues at 290 nm the emission spectrum was scanned from 310 to 440 nm. […] The data was fit to a binding curve.

Broadly, the IC50 is the point on the concentration scale where inhibition reaches its midpoint. Regarding `Cn1c(N)nc2c(ncn2[C@@H]2O[C@H](COP(=O)(O)OP(=O)(O)OP(=O)(O)O)[C@@H](O)[C@H]2O)c1=O` [A1, N1-Me GTP], the IC50 at PBCV-1 GTase [1] (setting [5]) came out at 80 µM. Further, the “Covalent intermediate: slower migrating species on SDS-PAGE” value at PBCV-1 GTase [2] is “appearance of a slower migrating species”. The “Relative efficiency of RNA capping, 1st and 2nd steps” value (“Relative efficiency of RNA capping” for short) on PBCV-1 GTase [3] amounted to 1.1.

Take `O=c1[nH]cnc2c1ncn2[C@@H]1O[C@H](COP(=O)(O)OP(=O)(O)OP(=O)(O)O)[C@@H](O)[C@H]1O` [A2, ITP]: the half-maximal inhibitory concentration (IC50) at PBCV-1 GTase [1] (setting [5]) came to 340 µM. In addition, the “Covalent intermediate: slower migrating species on SDS-PAGE” value on PBCV-1 GTase [2] is “appearance of a slower migrating species”. Also, the “Formation of capped RNA (slower migrating species)” value on PBCV-1 GTase [4] is reported as “formation of a slower migrating species corresponding to the capped RNA”. Also, on PBCV-1 GTase [3], the “Relative efficiency of RNA capping” value came to 1.3.

With `Nc1nc(N)c2ncn([C@@H]3O[C@H](COP(=O)(O)OP(=O)(O)OP(=O)(O)O)[C@@H](O)[C@H]3O)c2n1` [A4, 2-Amino ATP], the 50% inhibitory concentration (IC50) on PBCV-1 GTase [1] (setting [5]) was > 2000 µM.

For the compound `Nc1nc(Cl)c2ncn([C@@H]3O[C@H](COP(=O)(O)OP(=O)(O)OP(=O)(O)O)[C@@H](O)[C@H]3O)c2n1` [A5, 2-Amino-6 Cl purine RTP], at PBCV-1 GTase [1] (setting [5]), the IC50 came to 160 µM. In addition, at PBCV-1 GTase [3], the “Relative efficiency of RNA capping” value is recorded as 0.08; the “RNA capping (transfer onto RNA) relative to GTP” value was found to be 8%.

For the compound `COc1nc(N)nc2c1ncn2[C@@H]1O[C@H](COP(=O)(O)OP(=O)(O)OP(=O)(O)O)[C@@H](O)[C@H]1O` [A7, O6-Me GTP], on PBCV-1 GTase [1] (setting [5]), the IC50 came out at 150 µM. In addition, on PBCV-1 GTase [3], the “Relative efficiency of RNA capping” value was 0.48; the “RNA capping (transfer onto RNA) relative to GTP” value is ~ 50%.

Take `CSc1nc(N)nc2c1ncn2[C@@H]1O[C@H](COP(=O)(O)OP(=O)(O)OP(=O)(O)O)[C@@H](O)[C@H]1O` [A8, 6-Me thio GTP]: at PBCV-1 GTase [1] (setting [5]), the IC50 was found to be 430 µM. Also, the “Relative efficiency of RNA capping” value on PBCV-1 GTase [3] came to 0.07.

Regarding `CSc1ncnc2c1ncn2[C@@H]1O[C@H](COP(=O)(O)OP(=O)(O)OP(=O)(O)O)[C@@H](O)[C@H]1O` [A10, 6-Me thio ITP], the IC50 at PBCV-1 GTase [1] (setting [5]) turned out to be 1200 µM. For the same compound, on PBCV-1 GTase [3] (5’-α terminally labelled RNA, TLC), the “Transferability of covalent intermediate onto RNA” value is reported as “clearly not transferable onto RNA”.

For the compound `O=P(O)(O)OP(=O)(O)OP(=O)(O)OC[C@H]1O[C@@H](n2cnc3c(Cl)ncnc32)[C@H](O)[C@@H]1O` [A11, 6-Cl purine RTP], the IC50 on PBCV-1 GTase [1] (setting [5]) is > 2000 µM.

Take `Nc1nc2c(nc(Br)n2[C@@H]2O[C@H](COP(=O)(O)OP(=O)(O)OP(=O)(O)O)[C@@H](O)[C@H]2O)c(=O)[nH]1` [A13, 8-Bromo GTP]: the IC50 at PBCV-1 GTase [1] (setting [5]) was found to be 1500 µM. For the same compound, the “Relative efficiency of RNA capping” value on PBCV-1 GTase [3] was 0.40.

As for `Nc1nc2c(nc(I)n2[C@@H]2O[C@H](COP(=O)(O)OP(=O)(O)OP(=O)(O)O)[C@@H](O)[C@H]2O)c(=O)[nH]1` [A14, 8-Iodo GTP], the IC50 at PBCV-1 GTase [1] (setting [5]) worked out at 420 µM. In addition, the “Relative efficiency of RNA capping” value on PBCV-1 GTase [3] turned out to be 1.0.

Turning to `Nc1nc2c(ccn2[C@@H]2O[C@H](COP(=O)(O)OP(=O)(O)OP(=O)(O)O)[C@@H](O)[C@H]2O)c(=O)[nH]1` [A16, 7-deaza GTP], on PBCV-1 GTase [1] (setting [5]), the IC50 was > 2000 µM.

Regarding `Nc1ncnc2c1ncn2[C@@H]1O[C@H](COP(=O)(O)OP(=O)(O)OP(=O)(O)O)[C@@H](O)[C@H]1O` [ATP, reference compound], the IC50 at PBCV-1 GTase [1] (0.2 pmol [α-32P] GTP, PBCV-1 GTase 10 µM, analogue up to 2 mM, pH 7.5, 1hr at 30°C, read-out: IC50 for E-GMP formation, 1st step) is > 2000 µM. At PBCV-1 GTase [1], the “Effect on radiolabelled EpG signal” value was “no apparent effect”. Also, the “Formation of capped RNA (slower migrating species)” value at PBCV-1 GTase [4] was “no effect”.

Regarding `Nc1nc2c(ncn2[C@@H]2O[C@H](COP(=O)(O)OP(=O)(O)OP(=O)(O)O)[C@@H](O)[C@H]2O)c(=O)[nH]1` [GTP, reference compound], on eIF4E protein, the “Kd for purified eIF4E” value is recorded as “much higher apparent binding constant”. In addition, at PBCV-1 GTase [1], the IC50 worked out at 100 µM and the “Effect on radiolabelled EpG signal” value is given as “maximum loss of the radiolabelled EpG signal”. For the same compound, the “Formation of capped RNA (slower migrating species)” value at PBCV-1 GTase [4] is listed as “formation of a slower migrating species corresponding to the capped RNA”. In addition, the “Fraction of capped RNA over the total transcripts” value on PBCV-1 GTase [3] (cap donor 2 mM) was determined as 0.35 ±0.05. Moreover, the “Relative efficiency of RNA capping” value at PBCV-1 GTase [3] came out at 1.0.
